Reference: PubChem BioAssay AID1963981 (Molecular Pharmacology Branch, DTP, NCI, 2024)
Each block holds one molecule with its values, some of them ahead of it.

System: 354836-022-R-J1-PDC multicell spheroid viability
Assay: Anticancer human tumor 354836-022-R-J1-PDC patient-derived head and neck squamous cell carcinoma cell line growth inhibition [PI3K]
Conditions: for IC50: curve of first compound; for viability, T/C: stronger effect = lower value
Description: Combinatorial screen of targeted agents with the PI3K inhibitors inavolisib, alpelisib, duvelisib, and copanlisib in multi-cell type tumor spheroids
A high-throughput screen of multi-cell type tumor spheroids was designed to identify active combinations of targeted small molecules and PI3K pathway inhibitors. Complex spheroids include a stromal component modeled by human endothelial cells (HUVEC) and fibroblasts modeled by human mesenchymal stem cells (MSCs). The concentration ranges selected for each drug and investigational agent were based upon clinically achievable concentrations if the clinical Cmax of the agent was known.
Compounds. The drugs and investigational agents: inavolisib (NSC800729), alpelisib (NSC765974), duvelisib (NSC772469), copanlisib (NSC816437), ipatasertib (NSC767898), afuresertib (NSC778305), talazoparib (NSC767125), sapanisertib (NSC764658), selumetinib (NSC741078), tovorafenib (DAY101, NSC766906), vemurafenib (NSC761431), ravoxertinib (NSC781343), sotorasib (NSC818433), MRTX1133 (NSC 836407), abemaciclib (NSC 768073), palbociclib (NSC758247), venetoclax (NSC 766270), SY5609 (NSC837396), enzalutamide (NSC755605), and darolutamide (NSC825331), were obtained from the National Cancer Institute (NCI) Developmental Therapeutics Program Chemical Repository. The FDA-approved anticancer drug set is available from the NCI Developmental Therapeutics Program. […] The stock solutions were prepared in dimethyl sulfoxide (DMSO, Sigma-Aldrich, St. Louis, MO, cat. D2650) at 800-fold the tested concentration and stored at -70 degrees C prior to their use. All drugs and investigational agents were tested over a range starting from a high concentration at or near the clinical Cmax and decreasing in half-log increments. If the clinical Cmax for an agent had not been determined, the highest concentration tested was 10 microM.
Cell Culture. All cells were maintained in an incubator at 37 degrees C and 5% CO2 with 95% humidity. The PDC lines were cultured according to standard operating procedures established by the NCI PDMR (https://pdmr.cancer.gov/sops/default.htm). All PDCs were thawed and cultured in Matrigel-coated flasks prepared with a working solution of 1X Ham's F-12 nutrient mix, without supplementation (Invitrogen, Waltham, MA, cat. 11765054), 100 U/mL penicillin-streptomycin (Invitrogen, cat. 15140122), and 2.5% Matrigel (Corning Inc., Corning, NY, cat. 354248) for the first three passages. The 354836-022-R-J1-PDC, 475296-252-R-J1-PDC, and 997726-040-R-J2-PDC lines were cultured in 6A media, which includes advanced DMEM/F-12 (Thermo Fisher Scientific, cat. 12634028), 10 mM HEPES (Thermo Fisher Scientific, cat. 15630080), 1X GlutaMAX supplement (Thermo Fisher Scientific, cat. 35050061), 0.1 mg/mL primocin (InvivoGen, San Diego, CA, cat. ant-pm-2), 10% defined fetal bovine serum, heat inactivated (HyClone Laboratories Inc., Logan, UT, cat. SH30070.03HI), 50% L-WRN conditioned media (ATCC, cat. CRL-3276), 1.25 mM N-Acetyl-L-cysteine (Sigma-Aldrich, cat. A9165), 10 mM nicotinamide (Sigma-Aldrich, cat. N0636), 1X B-27 supplement (Thermo Fisher Scientific, cat. 17504044), 1X N-2 supplement (Thermo Fisher Scientific, cat. 17502048), and 10 microM Y-27632 dihydrochloride (Tocris Bioscience, Bristol, United Kingdom, cat. 1254). The 624824-186-R-J2-PDC line was cultured in 6C/Colon 1B media, which includes all 6A media components plus 50 ng/mL human EGF recombinant protein (Thermo Fisher Scientific, cat. PHG0311). […]

[1] = second compound 0.0316 µM, first compound 0.0316 µM
[2] = second compound 0.0316 µM, first compound 0.1 µM
[3] = second compound 0.0316 µM, first compound 0.316 µM
[4] = second compound 0.0316 µM, first compound 1 µM
[5] = second compound 0.0316 µM, first compound 3.16 µM
[6] = second compound 0.0316 µM, first compound 10 µM
[7] = second compound 0.1 µM, first compound 0.0316 µM
[8] = second compound 0.1 µM, first compound 0.1 µM
[9] = second compound 0.1 µM, first compound 0.316 µM
[10] = second compound 0.1 µM, first compound 1 µM
[11] = second compound 0.1 µM, first compound 3.16 µM
[12] = second compound 0.1 µM, first compound 10 µM
[13] = second compound 0.316 µM, first compound 0.0316 µM
[14] = second compound 0.316 µM, first compound 0.1 µM
[15] = second compound 0.316 µM, first compound 0.316 µM
[16] = second compound 0.316 µM, first compound 1 µM
[17] = second compound 0.316 µM, first compound 3.16 µM
[18] = second compound 0.316 µM, first compound 10 µM
[19] = second compound 1 µM, first compound 0.0316 µM
[20] = second compound 1 µM, first compound 0.1 µM
[21] = second compound 1 µM, first compound 0.316 µM
[22] = second compound 1 µM, first compound 1 µM
[23] = second compound 1 µM, first compound 3.16 µM
[24] = second compound 1 µM, first compound 10 µM
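Also: spheroids exposed to agents for seven days before the viability read.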

- IC50 (second compound 0.00316 µM): > 10 µM
- IC50 (second compound 0.01 µM): > 10 µM
- IC50 (second compound 0.0316 µM): > 10 µM
- IC50 (second compound 0.1 µM): > 10 µM
- IC50 (second compound 0.316 µM): > 10 µM
- IC50 (second compound 1 µM): 8.45 µM
SMILES: CC(Cn1ccc(-c2ccc(C#N)c(Cl)c2)n1)NC(=O)c1cc(C(C)O)[nH]n1 (centres undefined) + CC(Nc1ccc2c(c1)OCCn1cc(N3C(=O)OCC3C(F)F)nc1-2)C(N)=O
- viability, T/C (second compound 0.00316 µM, first compound 0.0316 µM): 99.4%
- viability, T/C (second compound 0.00316 µM, first compound 0.1 µM): 88.8%
- viability, T/C (second compound 0.00316 µM, first compound 0.316 µM): 96.7%
- viability, T/C (second compound 0.00316 µM, first compound 1 µM): 86.8%
- viability, T/C (second compound 0.00316 µM, first compound 3.16 µM): 94.3%
- viability, T/C (second compound 0.00316 µM, first compound 10 µM): 73.8%
- viability, T/C (second compound 0.01 µM, first compound 0.0316 µM): 95.9%
- viability, T/C (second compound 0.01 µM, first compound 0.1 µM): 103%
- viability, T/C (second compound 0.01 µM, first compound 0.316 µM): 99.6%
- viability, T/C (second compound 0.01 µM, first compound 1 µM): 81.8%
- viability, T/C (second compound 0.01 µM, first compound 3.16 µM): 88.3%
- viability, T/C (second compound 0.01 µM, first compound 10 µM): 74.8%
- viability, T/C [1]: 78.9%
- viability, T/C [2]: 87.6%
- viability, T/C [3]: 92.5%
- viability, T/C [4]: 97.4%
- viability, T/C [5]: 91.1%
- viability, T/C [6]: 81.8%
- viability, T/C [7]: 77.2%
- viability, T/C [8]: 91.9%
- viability, T/C [9]: 83.7%
- viability, T/C [10]: 87.3%
- viability, T/C [11]: 73.9%
- viability, T/C [12]: 82.9%
- viability, T/C [13]: 75.3%
- viability, T/C [14]: 67.5%
- viability, T/C [15]: 69.8%
- viability, T/C [16]: 75.5%
- viability, T/C [17]: 76.8%
- viability, T/C [18]: 63.6%
- viability, T/C [19]: 71.2%
- viability, T/C [20]: 67.4%
- viability, T/C [21]: 69.5%
- viability, T/C [22]: 64.3%
- viability, T/C [23]: 61.4%
- viability, T/C [24]: 48%

- IC50 (second compound 0.0316 µM): > 10 µM
- IC50 (second compound 0.1 µM): > 10 µM
- IC50 (second compound 0.316 µM): > 10 µM
- IC50 (second compound 1 µM): > 10 µM
- IC50 (second compound 3.16 µM): > 10 µM
- IC50 (second compound 10 µM): < 0.0316 µM
SMILES: C[C@@H](NC(=O)c1ncnc(N)c1Cl)c1ncc(C(=O)Nc2cc(C(F)(F)F)c(Cl)cn2)s1 + Cc1nc(NC(=O)N2CCCC2C(N)=O)sc1-c1ccnc(C(C)(C)C(F)(F)F)c1
- viability, T/C [1]: 103%
- viability, T/C [2]: 78.6%
- viability, T/C [3]: 95.9%
- viability, T/C [4]: 87.3%
- viability, T/C [5]: 86.6%
- viability, T/C [6]: 60.6%
- viability, T/C [7]: 94.6%
- viability, T/C [8]: 95.4%
- viability, T/C [9]: 98%
- viability, T/C [10]: 97.2%
- viability, T/C [11]: 96.7%
- viability, T/C [12]: 66.2%
- viability, T/C [13]: 77.7%
- viability, T/C [14]: 89.7%
- viability, T/C [15]: 86.5%
- viability, T/C [16]: 90.8%
- viability, T/C [17]: 89.6%
- viability, T/C [18]: 77.8%
- viability, T/C [19]: 65.3%
- viability, T/C [20]: 87.1%
- viability, T/C [21]: 76.4%
- viability, T/C [22]: 75.3%
- viability, T/C [23]: 78.4%
- viability, T/C [24]: 67.7%
- viability, T/C (second compound 3.16 µM, first compound 0.0316 µM): 53.9%
- viability, T/C (second compound 3.16 µM, first compound 0.1 µM): 59.8%
- viability, T/C (second compound 3.16 µM, first compound 0.316 µM): 70.1%
- viability, T/C (second compound 3.16 µM, first compound 1 µM): 59.7%
- viability, T/C (second compound 3.16 µM, first compound 3.16 µM): 66.5%
- viability, T/C (second compound 3.16 µM, first compound 10 µM): 37.8%
- viability, T/C (second compound 10 µM, first compound 0.0316 µM): 32.1%
- viability, T/C (second compound 10 µM, first compound 0.1 µM): 38.4%
- viability, T/C (second compound 10 µM, first compound 0.316 µM): 37.8%
- viability, T/C (second compound 10 µM, first compound 1 µM): 39.2%
- viability, T/C (second compound 10 µM, first compound 3.16 µM): 36.1%
- viability, T/C (second compound 10 µM, first compound 10 µM): 16.7%
